Reference: publication PMC3871636 (PLoS ONE, 2013)

Experiments:
[1] = molecular target: T1, double-labeled CYP3A4 (C64/C468)-DY/ER (Homo sapiens, UniProt P08684, S18F, form not given); test: Time-resolved LRET (phosphorescence lifetime measurements)
From the text: (§1) The excitation wavelength was set to 540 nm.

[2] = molecular target: T2, double-labeled CYP3A4 C377/C468-DY/ER (Homo sapiens, UniProt P08684, S18F, form not given); test: as above
From the text: as §1

[3] = molecular target: T3, double-labeled CYP3A4 (C64/C468)-ER/DY (Homo sapiens, UniProt P08684, S18F, form not given); test: as above
T3 sequence (P08684 13-503 S18F, form open): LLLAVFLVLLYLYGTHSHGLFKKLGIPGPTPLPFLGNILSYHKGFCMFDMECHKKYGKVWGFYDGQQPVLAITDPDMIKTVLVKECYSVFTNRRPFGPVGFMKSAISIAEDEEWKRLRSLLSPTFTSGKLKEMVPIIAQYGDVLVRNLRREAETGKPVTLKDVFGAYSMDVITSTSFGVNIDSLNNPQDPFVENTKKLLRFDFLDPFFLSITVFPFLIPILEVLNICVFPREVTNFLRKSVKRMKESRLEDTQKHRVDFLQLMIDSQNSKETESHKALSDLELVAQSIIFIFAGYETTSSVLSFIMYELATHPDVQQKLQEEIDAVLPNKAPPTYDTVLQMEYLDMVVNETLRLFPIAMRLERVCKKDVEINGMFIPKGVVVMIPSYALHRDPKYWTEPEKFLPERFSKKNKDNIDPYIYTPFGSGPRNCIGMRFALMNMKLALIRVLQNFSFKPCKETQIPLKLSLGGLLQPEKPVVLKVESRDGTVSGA
From the text: as §1

[4] = molecular target: T4, double-labeled CYP3A4 C64/C121-DY/ER (Homo sapiens, UniProt P08684, A121C/C239S/C377S/C468A/C98S/S18F); test: Steady-state LRET titration (delayed emission); conditions: Table S2; protein C64/C121-ER/DY; same ligand concentrations
T4 sequence (P08684 with tags, fused parts or gaps S18F/C98S/A121C/C239S/C377S/C468A limits assumed): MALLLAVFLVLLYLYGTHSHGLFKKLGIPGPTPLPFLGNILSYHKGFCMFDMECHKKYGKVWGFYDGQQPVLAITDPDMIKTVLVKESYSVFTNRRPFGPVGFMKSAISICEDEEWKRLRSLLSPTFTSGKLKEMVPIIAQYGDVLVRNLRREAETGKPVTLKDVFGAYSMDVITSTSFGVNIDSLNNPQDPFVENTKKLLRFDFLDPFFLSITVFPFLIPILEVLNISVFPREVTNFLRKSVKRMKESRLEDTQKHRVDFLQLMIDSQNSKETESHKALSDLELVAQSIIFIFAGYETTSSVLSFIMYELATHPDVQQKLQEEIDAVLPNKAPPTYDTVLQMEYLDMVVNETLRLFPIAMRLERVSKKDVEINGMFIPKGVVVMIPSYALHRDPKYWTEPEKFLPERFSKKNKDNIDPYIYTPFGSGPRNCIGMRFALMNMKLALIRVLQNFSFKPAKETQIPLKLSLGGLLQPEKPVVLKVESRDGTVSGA
Method: (§2) All absorbance and fluorescence assays (including the time-resolved fluorescence measurements) were performed at a protein concentration ≤1 µM at 25°C with continuous stirring. Absorbance spectra were recorded with an S2000 rapid scanning CCD spectrometer (Ocean Optics). Ligand binding assays were done in 100 mM Na-Hepes buffer, pH 7.4, containing 0.5 mM EDTA.
(§3) Fluorescence-based ligand binding assays were done under anaerobic conditions. Anaerobiosis was achieved using an oxygen-scavenging system consisting of protecatechuate-3,4-dioxygenase (0.5 units/ml) and 5 mM protocatechuic acid. The steady state and time-resolved phosphorescence measurements were performed with the use of a Cary Eclipse fluorescence spectrophotometer (Varian/Agilent Technologies). The excitation wavelength was set to 540 nm. Spectra were taken from 650 to 860 nm with 100 µs delay.
(§4) Quantitative interpretation of LRET results was also based on the use of PCA applied to a series of emission spectra normalized on integral intensity. […] Intensity of the donor and acceptor fluorescence obtained in this way were used in determination of the efficiency of steady-state LRET using the equation [drawing 1] (Eq.1) where I ad is emission intensity of the acceptor, I da is the residual donor emission in the presence of acceptor (I da), Φ a and Φ d are the quantum yield of the fluorescence of acceptor and the quantum yield of the phosphorescence of donor, respectively.
(§5) Distances were calculated using the equation: [drawing 3] (Eq.3) where R 0 is the Förster distance, and R is the distance between the donor and acceptor. R 0 was calculated with the use of PhotoChemCad software. In these calculations, we used the values of the orientation factor (κ^2) and the refractive index (n) of 0.667 and 1.4, respectively.
(§6) When fitting the results of titration experiments, where the changes in the monitored signal A S (fraction of the enzyme in the high-spin state, intensity or the lifetime of the donor phosphorescence at a given substrate concentration) were assumed to be proportional to [ES], this equation was complemented with the offset A 0 and the scaling factor A max to yield the following relationship: [drawing 5] (Eq.5)

[5] = molecular target: T4, double-labeled CYP3A4 C64/C121-DY/ER; test: Time-resolved LRET (phosphorescence lifetime measurements); conditions: same ligand concentrations
Method: as §2, §3
The treatment of the time-resolved decay traces was performed using a bi-exponential approximation. The efficiency of time-resolved LRET was calculated using the equation [drawing 2] (Eq.2)
In this equation τda and τd designate the average lifetime of the excited state of the donor in the presence and absence of the acceptor, respectively. These average lifetimes are determined as τ = α1τ1+α2τ2, where τ1,2 and α1,2 stay for the lifetime and the relative amplitude of each of the two exponential terms. In our calculations of the lifetime in double-labeled C64/C468, C377/C468 and C64/C121 proteins we used the lifetimes of phosphorescence measured with the respective proteins labeled with ERIA at a label:protein ratio 2∶1 as the estimates of τd.
as §5

[6] = molecular target: CYP3A4 (double-labeled (C64/C468)-DY/ER) (Homo sapiens, UniProt P08684, form not given/S18F); test: Steady-state LRET titration (delayed emission); format: binding; conditions: human, purified double-labeled CYP3A4 (C64/C468)-DY/ER protein, pH 7.4; (C64/C468)-DY/ER; LRET titration; read-out: K d, steady-state fluorescence
Chain of CYP3A4 (double-labeled (C64/C468)-DY/ER) (P08684 13-503 S18F, form open): as the sequence (P08684 13-503 S18F, form open) above
Method: as §2, §3, §4, §5, §6

[7] = molecular target: T1, double-labeled CYP3A4 (C64/C468)-DY/ER; test: Steady-state LRET titration (delayed emission); format: binding
Method: as §2, §3, §4, §5, §6

[8] = molecular target: T2, double-labeled CYP3A4 C377/C468-DY/ER; test: Steady-state LRET titration (delayed emission); format: binding; conditions: Table S2, protein C377/C468-ER/DY
Method: as §2, §3, §4, §5, §6

[9] = molecular target: T3, double-labeled CYP3A4 (C64/C468)-ER/DY; test: Steady-state LRET titration (delayed emission); format: binding
Method: as §2, §3, §4, §5, §6

[10] = molecular target: CYP3A4 (double-labeled (C64/C468)-ER/DY) (Homo sapiens, UniProt P08684, form not given/S18F); test: Steady-state LRET titration (delayed emission); format: binding; conditions: human, purified double-labeled CYP3A4 (C64/C468)-ER/DY protein, pH 7.4; (C64/C468)-ER/DY; LRET titration; read-out: K d, steady-state fluorescence
Chain of CYP3A4 (double-labeled (C64/C468)-ER/DY) (P08684 13-503 S18F, form open): as above
Method: as §2, §3, §4, §5, §6

[11] = (C64/C468)-DY/ER, nearly-saturating ligand: ANF 100 µM, bromocriptine 2.5 µM, cholesterol 50 µM, testosterone 100 µM
[12] = Table S1, (C64/C468)-DY/ER, same ligand concentrations
[13] = Table S2, C64/C468-DY/ER, 1-PB 40 µM, ANF 100 µM, BCT 2.5 µM, cholesterol 100 µM, testosterone 100 µM
[14] = Table S2, C64/C468-DY/ER, same ligand concentrations
[15] = Table S1, protein (C377/C468)-ER/DY, same ligand concentrations
[16] = Table S2, protein C377/C468-ER/DY, same ligand concentrations
[17] = (C64/C468)-ER/DY, nearly-saturating ligand: ANF 100 µM, bromocriptine 2.5 µM, cholesterol 50 µM, testosterone 100 µM
[18] = Table S1, (C64/C468)-ER/DY, same ligand concentrations
[19] = Table S2, C64/C468-ER/DY, 1-PB 40 µM, ANF 100 µM, BCT 2.5 µM, cholesterol 100 µM, testosterone 100 µM
[20] = Table S2, C64/C468-ER/DY, same ligand concentrations
[21] = Table S1, protein (C64/C121)-ER/DY
[22] = Table S2, protein C64/C121-ER/DY

T1 sequence (P08684 13-503 S18F, form open): as above
T2 sequence (P08684 13-503 S18F, form open): as above

CC(C)CCC[C@@H](C)[C@H]1CC[C@H]2[C@@H]3CC=C4C[C@@H](O)CC[C@]4(C)[C@H]3CC[C@]12C [Cholesterol, cholesterol]
ΔELT (change in LRET efficiency), lifetime measurements [1, 11]: −5.9±3% | ΔR (change in interprobe distance), lifetime measurements [1, 11]: 1.6±1.0 Å | τ1 (phosphorescence decay time with ligand) ([1]; Table S1, (C64/C468)-DY/ER, 1-PB 40 µM, ANF 100 µM, BCT 2.5 µM, cholesterol 100 µM, testosterone 100 µM, bi-exponential fit): 59 ± 1 µs | F1 (fraction of first exponential) [1, 12]: 43 ± 2% | τ2 (phosphorescence decay time with ligand) [1, 12]: 221 ± 1 µs | τav (average phosphorescence lifetime with ligand) [1, 12]: 152 ± 6 µs | E (LRET efficiency with ligand), lifetime measurements [1, 13]: 35 ± 3% | R (interprobe distance with ligand), lifetime measurements [1, 14]: 38.3 ± 0.7 Å | ΔR, lifetime measurements [1, 14]: 1.6 ± 0.7 Å | τ1 (phosphorescence decay time with ligand) ([2]; Table S1, protein (C377/C468)-ER/DY, 1-PB 40 µM, ANF 100 µM, BCT 2.5 µM, cholesterol 100 µM, testosterone 100 µM, bi-exponential fit): 38 ± 1 µs | F1 (fraction of first exponential) [2, 15]: 23 ± 5% | τ2 (phosphorescence decay time with ligand) [2, 15]: 163 ± 8 µs | τav (average phosphorescence lifetime with ligand) [2, 15]: 134 ± 3 µs | E (LRET efficiency with ligand), lifetime measurements ([2]; Table S2, protein C377/C468-ER/DY, 1-PB 40 µM, ANF 100 µM, BCT 2.5 µM, cholesterol 100 µM, testosterone 100 µM): 26 ± 2% | R (interprobe distance with ligand), lifetime measurements [2, 16]: 41.0 ± 0.6 Å | ΔR, lifetime measurements [2, 16]: 4.2 ± 0.6 Å | ΔELT (change in LRET efficiency), lifetime measurements [3, 17]: −16.6±1% | ΔR (change in interprobe distance), lifetime measurements [3, 17]: 4.8±0.2 Å | τ1 (phosphorescence decay time with ligand) ([3]; Table S1, (C64/C468)-ER/DY, 1-PB 40 µM, ANF 100 µM, BCT 2.5 µM, cholesterol 100 µM, testosterone 100 µM, bi-exponential fit): 79 ± 1 µs | F1 (fraction of first exponential) [3, 18]: 53 ± 7% | τ2 (phosphorescence decay time with ligand) [3, 18]: 268 ± 2 µs | τav (average phosphorescence lifetime with ligand) [3, 18]: 173 ± 1 µs | E (LRET efficiency with ligand), lifetime measurements [3, 19]: 26 ± 1% | R (interprobe distance with ligand), lifetime measurements [3, 20]: 41.1± 0.2 Å | ΔR, lifetime measurements [3, 20]: 4.8 ± 0.2 Å | R (interprobe distance with ligand), steady-state measurements [4]: 43.6 ± 0.5 Å | ΔR, steady-state measurements [4]: 1.0 ± 0.5 Å | F1 (fraction of first exponential) [5, 21]: 44 ± 3% | τ2 (phosphorescence decay time with ligand) [5, 21]: 222 ± 8 µs | τav (average phosphorescence lifetime with ligand) [5, 21]: 154 ± 1 µs | R (interprobe distance with ligand), lifetime measurements [5, 22]: 35.8 ± 0.1 Å | ΔR, lifetime measurements [5, 22]: 0.8 ± 0.1 Å | Kd [6]: 6.5 ± 1.1 µM | ΔR (change in interprobe distance), steady-state fluorescence ([7]; (C64/C468)-DY/ER): 5.9±2.0 Å | ΔE (change in LRET efficiency), steady-state fluorescence ([7]; (C64/C468)-DY/ER, from maximal relative change in donor intensity): −11±1% | E (LRET efficiency with ligand), steady-state measurements [7, 13]: 24 ± 1% | R (interprobe distance with ligand), steady-state measurements [7, 14]: 40.8 ± 2.0 Å | ΔR, steady-state measurements [7, 14]: 5.9 ± 2.0 Å | E (LRET efficiency with ligand), steady-state measurements ([8]; 1-PB 40 µM, ANF 100 µM, BCT 2.5 µM, cholesterol 100 µM, testosterone 100 µM): 14 ± 0% | R (interprobe distance with ligand), steady-state measurements ([8]; same ligand concentrations): 45.2 ± 0.1 Å | ΔR, steady-state measurements ([8]; same ligand concentrations): 0.5 ± 0.1 Å | ΔR (change in interprobe distance), steady-state fluorescence ([9]; (C64/C468)-ER/DY): 3.5±0.7 Å | ΔE (change in LRET efficiency), steady-state fluorescence ([9]; (C64/C468)-ER/DY, from maximal relative change in donor intensity): −10±5% | E (LRET efficiency with ligand), steady-state measurements [9, 19]: 19 ± 1% | R (interprobe distance with ligand), steady-state measurements [9, 20]: 42.6 ± 0.7 Å | ΔR, steady-state measurements [9, 20]: 3.5 ± 0.7 Å | Kd [10]: 7.7 ± 0.9 µM
